Data published in US4471131A, “Novel silyl esters of N-phosphonomethylglycine” (Monsanto Company, priority 1983, dated 1984).

What was measured:
Experiment in all cases: post-emergence herbicidal activity, greenhouse
Assay type in all cases: in vivo
[1] = system: Morningglory
Procedure, shortened: (§1)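 Greenhouse-grown seedlings in soil pans; post-emergence atomizer spray at 2–3 weeks; injury against controls observed twice, near weeks 2 and 4.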

[2] = system: Barnyardgrass
Procedure, shortened: as §1

[3] = system: Velvetleaf
Procedure, shortened: as §1

[4] = system: Canada Thistle; conditions: Table II
Procedure, shortened: as §1

[5] = system: Quackgrass; conditions: Table II
Procedure, shortened: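 Foliar spray, chamber, atomizer; plants 2–3 weeks old in topsoil pans; emulsifier ~0.4% by weight; rates as listed. Rating: injury relative to controls, ~2 and ~4 WAT.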

[6] = system: Sugar Beet; conditions: Table III, formulated in anhydrous tetrahydrofuran
Procedure, shortened: as §1

[7] = system: Pennsylvania Smartweed
Procedure, shortened: as §1

[8] = system: Panicum Spp; conditions: Table III, formulated in anhydrous tetrahydrofuran
Procedure, shortened: as §1

[9] = system: Large Crabgrass; conditions: Table III, formulated in anhydrous tetrahydrofuran
Procedure, shortened: as §1

[10] = Table II, 2 WAT, 11.2 kg/h, formulated in anhydrous tetrahydrofuran
[11] = Table II, 4 WAT, 11.2 kg/h, formulated in anhydrous tetrahydrofuran
[12] = Table III, 2 WAT, 1.1 kg/h, formulated in anhydrous tetrahydrofuran
[13] = Table III, 2 WAT, 5.6 kg/h, formulated in anhydrous tetrahydrofuran
[14] = Table III, 2 WAT, .28 kg/h, formulated in anhydrous tetrahydrofuran
[15] = Table III, 4 WAT, 5.6 kg/h, formulated in anhydrous tetrahydrofuran
[16] = Table II, 2 WAT, 5.6 kg/h, formulated in anhydrous tetrahydrofuran
[17] = 2 WAT, 5.6 kg/h, formulated in anhydrous tetrahydrofuran
[18] = 2 WAT, 11.2 kg/h, formulated in anhydrous tetrahydrofuran
[19] = 4 WAT, 11.2 kg/h, formulated in anhydrous tetrahydrofuran

CC(C)(C)[Si](OP(=O)(O)CNCC(=O)O)(c1ccccc1)c1ccccc1 [Ex. 5, Glycine, N-((([(1,1-Dimethylethyl)Diphenylsilyl]oxy)-Hydroxyphosphinyl)-Methyl)-,]
Plant Response Index (D) [1, 10]: 1 (25-49% inhibition)
Plant Response Index (D) ([1]; Table II, 4 WAT, 5.6 kg/h): 1 (25-49% inhibition)
Plant Response Index (D) ([1]; Table II, 4 WAT, 11.2 kg/h): 1 (25-49% inhibition)
Plant Response Index (D) [1, 11]: 1 (25-49% inhibition)
Plant Response Index (D) [1, 12]: 0 (0-24% inhibition)
Plant Response Index (D) [1, 13]: 1 (25-49% inhibition)
Plant Response Index (D) [1, 14]: 0 (0-24% inhibition)
Plant Response Index (D) [1, 15]: 0 (0-24% inhibition)
Plant Response Index (K) ([2]; Table II, 2 WAT, 5.6 kg/h): 0 (0-24% inhibition)
Plant Response Index (K) [2, 16]: 0 (0-24% inhibition)
Plant Response Index (K) ([2]; Table II, 2 WAT, 11.2 kg/h): 1 (25-49% inhibition)
Plant Response Index (K) [2, 10]: 1 (25-49% inhibition)
Plant Response Index (K) ([2]; Table II, 4 WAT, 5.6 kg/h): 0 (0-24% inhibition)
Plant Response Index (K) ([2]; Table II, 4 WAT, 11.2 kg/h): 2 (50-74% inhibition)
Plant Response Index (K) [2, 11]: 0 (0-24% inhibition)
Plant Response Index (K) [2, 12]: 0 (0-24% inhibition)
Plant Response Index (K) [2, 13]: 0 (0-24% inhibition)
Plant Response Index (K) [2, 14]: 0 (0-24% inhibition)
Plant Response Index (K) [2, 15]: 0 (0-24% inhibition)
Plant Response Index (C) ([3]; Table II, 2 WAT, 5.6 kg/h): 0 (0-24% inhibition)
Plant Response Index (C) [3, 16]: 0 (0-24% inhibition)
Plant Response Index (C) ([3]; Table II, 2 WAT, 11.2 kg/h): 1 (25-49% inhibition)
Plant Response Index (C) [3, 10]: 0 (0-24% inhibition)
Plant Response Index (C) ([3]; Table II, 4 WAT, 5.6 kg/h): 0 (0-24% inhibition)
Plant Response Index (C) ([3]; Table II, 4 WAT, 11.2 kg/h): 0 (0-24% inhibition)
Plant Response Index (C) [3, 11]: 0 (0-24% inhibition)
Plant Response Index (C) [3, 12]: 0 (0-24% inhibition)
Plant Response Index (C) [3, 13]: 0 (0-24% inhibition)
Plant Response Index (C) [3, 14]: 0 (0-24% inhibition)
Plant Response Index (C) [3, 15]: 0 (0-24% inhibition)
Plant Response Index (A) ([4]; 2 WAT, 5.6 kg/h): 1 (25-49% inhibition)
Plant Response Index (A) [4, 17]: 0 (0-24% inhibition)
Plant Response Index (A) ([4]; 2 WAT, 11.2 kg/h): 1 (25-49% inhibition)
Plant Response Index (A) [4, 18]: 0 (0-24% inhibition)
Plant Response Index (A) ([4]; 4 WAT, 5.6 kg/h): 1 (25-49% inhibition)
Plant Response Index (A) ([4]; 4 WAT, 11.2 kg/h): 1 (25-49% inhibition)
Plant Response Index (A) [4, 19]: 1 (25-49% inhibition)
Plant Response Index (H) ([5]; 2 WAT, 5.6 kg/h): 0 (0-24% inhibition)
Plant Response Index (H) [5, 17]: 0 (0-24% inhibition)
Plant Response Index (H) ([5]; 2 WAT, 11.2 kg/h): 0 (0-24% inhibition)
Plant Response Index (H) [5, 18]: 0 (0-24% inhibition)
Plant Response Index (H) ([5]; 4 WAT, 5.6 kg/h): 0 (0-24% inhibition)
Plant Response Index (H) ([5]; 4 WAT, 11.2 kg/h): 1 (25-49% inhibition)
Plant Response Index (H) [5, 19]: 0 (0-24% inhibition)
Plant Response Index (M) ([6]; 2 WAT, 1.1 kg/h): 0 (0-24% inhibition)
Plant Response Index (M) ([6]; 2 WAT, 5.6 kg/h): 0 (0-24% inhibition)
Plant Response Index (M) ([6]; 2 WAT, .28 kg/h): 0 (0-24% inhibition)
Plant Response Index (M) ([6]; 4 WAT, 5.6 kg/h): 0 (0-24% inhibition)
Plant Response Index (F) ([7]; Table II, 2 WAT, 5.6 kg/h): 0 (0-24% inhibition)
Plant Response Index (F) [7, 16]: 0 (0-24% inhibition)
Plant Response Index (F) ([7]; Table II, 2 WAT, 11.2 kg/h): 2 (50-74% inhibition)
Plant Response Index (F) [7, 10]: 0 (0-24% inhibition)
Plant Response Index (F) ([7]; Table II, 4 WAT, 5.6 kg/h): 0 (0-24% inhibition)
Plant Response Index (F) ([7]; Table II, 4 WAT, 11.2 kg/h): 2 (50-74% inhibition)
Plant Response Index (F) [7, 11]: 0 (0-24% inhibition)
Plant Response Index (F) [7, 12]: 0 (0-24% inhibition)
Plant Response Index (F) [7, 13]: 1 (25-49% inhibition)
Plant Response Index (F) [7, 14]: 0 (0-24% inhibition)
Plant Response Index (F) [7, 15]: 1 (25-49% inhibition)
Plant Response Index (S) ([8]; 2 WAT, 1.1 kg/h): 0 (0-24% inhibition)
Plant Response Index (S) ([8]; 2 WAT, 5.6 kg/h): 0 (0-24% inhibition)
Plant Response Index (S) ([8]; 2 WAT, .28 kg/h): 0 (0-24% inhibition)
Plant Response Index (S) ([8]; 4 WAT, 5.6 kg/h): 0 (0-24% inhibition)
Plant Response Index (T) ([9]; 2 WAT, 1.1 kg/h): 0 (0-24% inhibition)
Plant Response Index (T) ([9]; 2 WAT, 5.6 kg/h): 1 (25-49% inhibition)
Plant Response Index (T) ([9]; 2 WAT, .28 kg/h): 0 (0-24% inhibition)
Plant Response Index (T) ([9]; 4 WAT, 5.6 kg/h): 1 (25-49% inhibition)
